# Measured values as given in US11325899B2, “Benzofurane and benzothiophene derivatives as PGE2 receptor modulators” (IDORSIA PHARMACEUTICALS LTD, priority 2017, dated 2022).
# Columns and labels:
# Format in all cases: cell-based
# EP2 receptor = biological target: T1, EP2 receptor (Homo sapiens, UniProt P43116); test: hEP2 cAMP assay (SF295 glioblastoma cells, HTRF cAMP, PGE2 stimulation); settings: antagonistic activity
# T1 construct: SF295 glioblastoma cells express high endogenous EP2 and no EP4; host or cells: SF295 glioblastoma cells
# Description: (§1) The antagonistic activities of the compounds of formula (I) on the EP2 and EP4 receptors are also determined in accordance with the following experimental method.
# (§2) Human tumor cell lines expressing endogenously either EP4 or EP2 are used and cAMP accumulation in cells upon PGE2 stimulation is monitored. SF295 glioblastoma cells express high endogenous EP2 and no EP4, whereas BT549 breast cancer cells, express high endogenous EP4 levels and very low EP2 levels.
# (§3) As a detection method for cAMP the HTRF (homogeneous time resolved fluorescence) Cisbio kit (HTRF cAMP dynamic 2 kit 20′000 tests Cisbio Cat. #62AM4PEC) was used, which is based on a competitive immunoassay using a Cryptate-labeled anti-cAMP antibody and d2-labeled cAMP. Native cAMP produced by cells or unlabeled cAMP (for the standard curve) compete with exogenously added d2-labeled cAMP (acceptor) for binding to monoclonal anti-cAMP-Eu3+ Cryptate (donor). A FRET signal (Fluorescence Resonance Energy Transfer) is obtained only if the labeled anti-cAMP antibody binds the d2 labelled cAMP, thus the specific signal (i.e. energy transfer) is inversely proportional to the concentration of cAMP in the standard or sample.
# (§4) The SF295 cells (NCI/No. 0503170) are detached from culture dishes with a cell dissociation buffer (Invitrogen, 13151-014), and collected in growing medium (GM: RPM1640 (Invitrogen 21875)/10% FCS, 1% Penicilin/streptomycin). Cells are counted washed and resuspended in assay buffer (AB; HBSS, 20 mM HEPES, 0.2% BSA; 2 mM IBMX). 4′000 cells in 5 μl of AB are seeded per well of a small volume 384 well plate (black with flat bottom, Greiner 784076).
# Stock solutions of test compounds are made at a concentration of 10 mM in DMSO, and serially diluted in DMSO to concentrations required for inhibition dose response curves (tested concentration range 30 μM-0.4 nM; 30 μM-0.015 nM or 1 μM-0.01 nM).
# PGE2 (Cayman 14010, stock solution: 75 μM in DMSO) is used as agonist at 75 nM final concentration, corresponding to EC80.
# (§5) Two point five microliters of diluted compounds are transferred into the assay plate. Plate is pre-incubated 45 minutes at room temperature. Subsequently, 2.5 microliters of PGE2 (final conc. 75 nM) are transferred into the assay plate. Plate is incubated 30 minutes at room temperature. Five μl of each donor (anti-cAMP cryptate) and acceptor (cAMP-d2) are added and the plate is incubated another hour at room temperature in the dark and then read using a BMG LABTECH PHERAstar reader (Excitation: 337 nm, Emission: 620 and 665 nm).
# (§6) The obtained Delta F (fluorescence) values (665 nm/620 nM) are converted into % cAMP values using the measurements of the cAMP calibrator provided in the kit. For each compound concentration the percentage of cAMP compared to DMSO control value as average±STDEV (each concentration is measured in duplicate) is calculated.
# (§7) IC50 values and curves are generated with XLfit software (IDBS) using Dose-Response One Site model 203. When compounds were measured multiple times, mean values are given.
# EP4 receptor = biological target: T2, EP4 receptor (Homo sapiens, UniProt P35408); test: hEP4 cAMP assay (BT549 breast cancer cells, HTRF cAMP, PGE2 stimulation); settings: antagonistic activity, PGE2 6 nM (EC80)
# T2 construct: BT549 breast cancer cells, express high endogenous EP4 levels and very low EP2 levels; host or cells: BT549 breast cancer cells
# Description: as §1, §2, §3
# as §4, with “BT549” for “SF295”, “0507282)” for “0503170)”, “RPMI1640” for “RPM1640”
# Stock solutions of test compounds are made at a concentration of 10 mM in DMSO, and serially diluted in DMSO to concentrations required for inhibition dose response curves (tested concentration range 30 μM-0.4 nM; 30 μM-0.015 nM or 1 uM-0.01 nM).
# PGE2 (Cayman 14010, stock solution: 6 μM in DMSO) is used as agonist at 6 nM final concentration, corresponding to EC80.
# as §5, with “6” for “75”, “(Excitation:337” for “(Excitation: 337”, “Emission:620” for “Emission: 620”
# as §6, with “F(fluorescence)” for “F (fluorescence)”
# as §7
# PTGER4 (EP4) = biological target: T3, PTGER4 (EP4) (Homo sapiens, UniProt P35408); test: hEP4 b-arrestin assay (PathHunter HEK 293 PTGER4 b-arrestin cells); settings: antagonistic activity, beta-arrestin assay; read-out: hEP4 b-arr IC50
# T3 construct: host or cells: HEK 293 (PathHunter PTGER4 b-arrestin cell line)
# Procedure, shortened: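 β-Arrestin recruitment to EP4 was read as enzyme-fragment-complementation chemiluminescence in stably transfected HEK 293 cells. After 15 min compound preincubation at 37 °C (ranges 10 μM–2 nM or 1 μM–0.2 nM), cells were stimulated 120 min with PGE2 at 20 nM, its EC80. IC50 values were fitted from duplicates, with repeat measurements averaged.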
# PTGER2 (EP2) = biological target: T4, PTGER2 (EP2) (Homo sapiens, UniProt P43116); test: hEP2 b-arrestin assay (PathHunter HEK 293 PTGER2 b-arrestin cells); settings: antagonistic activity, beta-arrestin assay; read-out: hEP2 b-arr IC50
# T4 construct: host or cells: HEK 293 (PathHunter PTGER2 b-arrestin cell line)
# Procedure, shortened: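 Antagonism measured as inhibition of PGE2-driven β-arrestin 2 recruitment (enzyme fragment complementation, luminescence) in engineered HEK293 EP2 cells. Agonist: 5 μM PGE2, ~EC80, 120 min at 37 °C after 15 min compound preincubation; test range 10 μM-2 nM or 1 μM-0.2 nM, duplicates, IC50 fitted.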
# T2 sequence (P35408 whole entry): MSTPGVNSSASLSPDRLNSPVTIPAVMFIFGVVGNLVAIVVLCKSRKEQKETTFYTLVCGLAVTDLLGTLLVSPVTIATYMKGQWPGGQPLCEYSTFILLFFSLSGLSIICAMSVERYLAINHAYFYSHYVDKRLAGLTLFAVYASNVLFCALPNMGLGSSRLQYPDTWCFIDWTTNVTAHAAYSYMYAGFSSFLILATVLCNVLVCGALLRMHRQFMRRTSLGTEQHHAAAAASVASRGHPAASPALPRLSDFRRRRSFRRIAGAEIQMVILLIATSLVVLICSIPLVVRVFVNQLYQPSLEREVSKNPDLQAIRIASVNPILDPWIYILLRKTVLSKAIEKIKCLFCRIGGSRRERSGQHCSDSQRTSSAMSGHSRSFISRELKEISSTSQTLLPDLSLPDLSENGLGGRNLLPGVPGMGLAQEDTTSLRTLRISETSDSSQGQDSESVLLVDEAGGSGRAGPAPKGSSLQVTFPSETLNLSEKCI
# T3 sequence (P35408 whole entry): as above
# T1 sequence (P43116 whole entry): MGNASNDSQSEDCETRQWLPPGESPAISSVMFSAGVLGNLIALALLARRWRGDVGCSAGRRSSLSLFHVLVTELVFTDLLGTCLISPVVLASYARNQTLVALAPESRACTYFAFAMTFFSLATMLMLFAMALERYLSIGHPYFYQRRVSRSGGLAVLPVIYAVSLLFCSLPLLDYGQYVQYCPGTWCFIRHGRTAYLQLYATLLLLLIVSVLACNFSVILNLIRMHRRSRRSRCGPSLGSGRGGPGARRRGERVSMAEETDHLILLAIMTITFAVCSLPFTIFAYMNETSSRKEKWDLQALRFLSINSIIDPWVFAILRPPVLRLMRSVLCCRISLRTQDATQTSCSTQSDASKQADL
# T4 sequence (P43116 whole entry): as above
Compound,IC50 (EP2 receptor) [nM],IC50 (EP4 receptor) [nM],IC50 (PTGER4 (EP4)) [nM],IC50 (PTGER2 (EP2)) [nM]
"(4-{6-[2-(4,5-Difluoro-7-methoxy-2-methyl-benzofuran-3-yl)-ethylamino]-pyrimidin-4-yl}-2-ethoxy-phenoxy)-acetic acid [Example 123]",359,219,142,
"CCOc1cc(-c2cc(NCCc3c(C)sc4c(C)ccc(Cl)c34)ncn2)ccc1CC(=O)O [Example 111, (4-{6-[2-(4-Chloro-2,7-dimethyl-benzo[b]thiophen-3-yl)-ethylamino]-pyrimidin-4-yl}-2-ethoxy-phenyl)-acetic acid]",561,433,197,
"CCOc1cc(-c2cc(NCCc3csc4ccccc34)ncn2)ccc1OCC(=O)O [Example 125, {4-[6-(2-Benzo[b]thiophen-3-yl-ethylamino)-pyrimidin-4-yl]-2-ethoxy-phenoxy}-acetic acid]",359,426,,
"COc1cc(-c2cc(NCCc3c(C)sc4c(C)ccc(F)c34)ncn2)cc(C)c1C(=O)O [Example 74, 4-{6-[2-(4-Fluoro-2,7-dimethyl-benzo[b]thiophen-3-yl)-ethylamino]-pyrimidin-4-yl}-2-methoxy-6-methyl-benzoic acid]",273,644,,
"CCOc1cc(-c2cc(NCCc3c(C)sc4c(Cl)ccc(Cl)c34)ncn2)ccc1CC(=O)O [Example 114, (4-{6-[2-(4,7-Dichloro-2-methyl-benzo[b]thiophen-3-yl)-ethylamino]-pyrimidin-4-yl}-2-ethoxy-phenyl)-acetic acid]",477,781,246,

# These reach a lower IC50 (EP4 receptor). Values come first.
IC50 (EP2 receptor) [nM],IC50 (EP4 receptor) [nM],IC50 (PTGER4 (EP4)) [nM],IC50 (PTGER2 (EP2)) [nM],Compound
1,2,,,"CCOc1cc(-c2cc(NCCc3c(C#N)sc4c(C)cc(F)cc34)ncn2)sc1C(=O)O [Example 26, 5-{6-[2-(2-Cyano-5-fluoro-7-methyl-benzo[b]thiophen-3-yl)-ethylamino]-pyrimidin-4-yl}-3-ethoxy-thiophene-2-carboxylic acid]"
7,87,,,"Cc1sc2c(C)cccc2c1CCNc1cc(-c2ccc3oc(C(=O)O)cc3c2)ncn1 [Example 78, 5-{6-[2-(2,7-Dimethyl-benzo[b]thiophen-3-yl)-ethylamino]-pyrimidin-4-yl}-benzofuran-2-carboxylic acid]"
37,82,,,"CCOc1cc(-c2cc(NCCc3c(C)sc4c(C)cc(F)cc34)ncn2)ccc1NCC(=O)O [Example 128, (2-Ethoxy-4-{6-[2-(5-fluoro-2,7-dimethyl-benzo[b]thiophen-3-yl)-ethylamino]-pyrimidin-4-yl}-phenylamino)-acetic acid]"
11,4,2,,"CCOc1cc(-c2cc(NCCc3c(C#N)sc4c(OC)cccc34)ncn2)sc1C(=O)O [Example 27, 5-{6-[2-(2-Cyano-7-methoxy-benzo[b]thiophen-3-yl)-ethylamino]-pyrimidin-4-yl}-3-ethoxy-thiophene-2-carboxylic acid]"
,22,142,59,"COc1cc(Cl)cc2c(CCNc3cc(-c4cc(C)c(C(=O)O)s4)ncn3)c(C)oc12 [Example 1, 5-{6-[2-(5-Chloro-7-methoxy-2-methyl-benzofuran-3-yl)-ethylamino]-pyrimidin-4-yl}-3-methyl-thiophene-2-carboxylic acid]"
13,42,,,"Cc1sc2c(C)cc(F)cc2c1CCNc1cc(-c2cc(OCCO)c(C(=O)O)s2)ncn1 [Example 41, 5-{6-[2-(5-Fluoro-2,7-dimethyl-benzo[b]thiophen-3-yl)-ethylamino]-pyrimidin-4-yl}-3-(2-hydroxy-ethoxy)-thiophene-2-carboxylic acid]"
